Test results as given in the supplement of paper PMC5752671.

Legend:
Experiment in all cases: area under dose-response curve (cell viability) (AUC (arbitrary, % viability x log concentration)); higher = less sensitive (more viable)
Settings in all cases: 4 days
EOL-1 = tested on: EOL-1
Method: (§1)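 14 AML cell lines were plated on extracellular-matrix-coated 384-well plates and exposed to each drug at 8 concentrations (4-5 logs within 1e-12 to 1e-4 M, tailored per drug) in duplicate. Viability was read by CellTiter-Glo after 4 days. The dose-response (averaged over duplicates) was fitted to a 4-parameter sigmoid, and the area under the curve was taken as the sensitivity measure.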

KASUMI1 = tested on: KASUMI1
Method: as §1

KG1 = tested on: KG1
Method: as §1

MOLM/13 = tested on: MOLM/13
Method: as §1

MOLM/16 = tested on: MOLM/16
Method: as §1

NB4 = tested on: NB4
Method: as §1

OCI-AML2 = tested on: OCI-AML2
Method: as §1

THP-1 = tested on: THP-1
Method: as §1

Row | Structure (SMILES) | area under dose-response curve (EOL-1) | area under dose-response curve (KASUMI1) | area under dose-response curve (KG1) | area under dose-response curve (MOLM/13) | area under dose-response curve (MOLM/16) | area under dose-response curve (NB4) | area under dose-response curve (OCI-AML2) | area under dose-response curve (THP-1)
1 | CC(C)CC(=O)Nc1n[nH]c2c1CN(C(=O)C1CCN(C)CC1)C2(C)C | 353 | 463 | 556 | 329 | 268 | 258 | 268 | 476
2 | CN1CC[C@@H](NC(=O)Nc2ccc(C#N)cc2)C[C@@H]1c1nc2ccccc2[nH]1 | 642 | 664 | 666 | 583 | 587 | 607 | 559 | 655
3 | COc1ccc2c(c1)CCC1C2CCC2(C)C(NCCCCCCN3C(=O)C=CC3=O)CCC12 (centres undefined) | 523 | 509 | 522 | 658 | 632 | 645 | 656 | 608
4 | Cc1cnc(Nc2ccc(OCCN3CCCC3)cc2)nc1Nc1cccc(S(=O)(=O)NC(C)(C)C)c1 | 389 | 544 | 532 | 400 | 392 | 563 | 505 | 624
5 | NC(=O)c1ccc(-c2nc(-c3ccccn3)c(-c3ccc4c(c3)OCO4)[nH]2)cc1 | 600 | 822 | 800 | 692 | 653 | 600 | 619 | 796
6 | O=C(NC[C@H](O)CO)c1ccncc1Nc1ccc(I)cc1F | 347 | 323 | 373 | 520 | 402 | 355 | 109 | 421
7 | O=C1NC(=O)/C(=C\c2ccc3nccnc3c2)S1 | 679 | 642 | 666 | 637 | 618 | 605 | 634 | 679
8 | OCCn1cc(-c2cnc3nnn(Cc4ccc5ncccc5c4)c3n2)cn1 | 616 | 638 | 664 | 566 | 592 | 567 | 540 | 662
9 | Nc1ncnc2c1c(I)cn2[C@@H]1O[C@H](CO)[C@@H](O)[C@H]1O [5-Iodotubercidin] | 470 | 461 | 422 | 427 | 403 | 516 | 489 | 530
10 | CC1(C)CCC(c2ccc(Cl)cc2)=C(CN2CCN(c3ccc(C(=O)NS(=O)(=O)c4ccc(N[C@H](CCN5CCOCC5)CSc5ccccc5)c(S(=O)(=O)C(F)(F)F)c4)cc3)CC2)C1 [ABT-263] | 495 | 490 | 528 | 542 | 540 | 642 | 504 | 612
11 | Cl[TeH]1(Cl)(Cl)OCCO1.N [AS101] | 626 | 691 | 605 | 556 | 561 | 542 | 547 | 626
12 | CN1CCN(CCOc2cc(OC3CCOCC3)c3c(Nc4c(Cl)ccc5c4OCO5)ncnc3c2)CC1 [AZD0530] | 565 | 772 | 749 | 671 | 666 | 614 | 646 | 783
13 | NC(=O)Nc1cc(-c2cccc(F)c2)sc1C(=O)N[C@H]1CCCNC1 [AZD7762] | 6.62 | 408 | 405 | 5.84 | 387 | 378 | 348 | 365
14 | Cc1cc(C(=O)NOCCO)c(Nc2ccc(I)cc2F)n(C)c1=O [AZD8330] | 169 | 375 | 371 | 416 | 341 | 348 | 33.6 | 424
15 | Cn1cnc2c(F)c(Nc3ccc(Br)cc3Cl)c(C(=O)NOCCO)cc21 [AZD-6244] | 509 | 528 | 578 | 662 | 501 | 519 | 338 | 627
16 | COc1ccc(-c2ccc3ncc4c(c3c2)n(-c2ccc(N3CCNCC3)c(C(F)(F)F)c2)c(=O)n4C)cn1 [BGT-226] | 344 | 366 | 354 | 403 | 316 | 448 | 356 | 415
17 | CC[C@@H]1C(=O)N(C)c2cnc(Nc3ccc(C(=O)NC4CCN(C)CC4)cc3OC)nc2N1C1CCCC1 [BI-2536] | 10.5 | 118 | 84.8 | 7.65 | 90 | 18.2 | 5.96 | 131
18 | CN(C)C/C=C/C(=O)Nc1cc2c(Nc3ccc(F)c(Cl)c3)ncnc2cc1O[C@H]1CCOC1 [BIBW 2992] | 477 | 641 | 623 | 625 | 464 | 598 | 600 | 664
